Laboratory results taken from ChEMBL document CHEMBL3044769, “A brief synthesis of natural antifeedant, 1-(2,4,6-trimethoxyphenyl) but-2(E)-en-1-one” (1994).

Test system: Spodoptera litura
Assay: Antifeedant activity in Spodoptera litura assessed as feeding ratio at 0.1% of the diet
Type: functional

C/C=C/C(=O)c1c(OC)cc(OC)cc1OC
Activity: 50.5%
